In patent publication US7585859B2, “PDE4B inhibitors and uses therefor” (Plexxikon, Inc., priority 2004, dated 2009):
Read-outs that look alike come from different tables or passages of the source.

Tests used:
[1] = target: T1, PDE4B: The catalytic domain of human PDE4B from S152-S528 (Homo sapiens, UniProt Q07343); assay: PDE4 IC50 determination by Scintillation Proximity Assay, PDE4B; assay type: biochemical
T1 construct: His6 (N); thrombin cleavage site (N); made in house; host or cells: E. coli
T1 sequence (Q07343 with tags, fused parts or gaps): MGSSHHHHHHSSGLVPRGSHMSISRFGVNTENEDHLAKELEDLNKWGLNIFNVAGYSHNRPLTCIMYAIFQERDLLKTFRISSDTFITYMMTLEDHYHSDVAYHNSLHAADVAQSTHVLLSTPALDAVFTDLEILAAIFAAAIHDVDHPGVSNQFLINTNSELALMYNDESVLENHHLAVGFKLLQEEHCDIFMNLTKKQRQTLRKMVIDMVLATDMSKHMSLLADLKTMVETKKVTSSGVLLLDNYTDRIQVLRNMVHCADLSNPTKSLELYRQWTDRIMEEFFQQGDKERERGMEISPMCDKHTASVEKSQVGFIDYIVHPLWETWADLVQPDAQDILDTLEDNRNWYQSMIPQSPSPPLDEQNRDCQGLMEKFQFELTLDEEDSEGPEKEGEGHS
How it was run: (§1)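 Radiometric SPA: PDE4B (80 ng/ml) or PDE4D (4 ng/ml) hydrolysed [^3H]cAMP over 30 min at 30°, and the bead-bound [^3H]AMP was scintillation-counted.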

[2] = target: T2, PDE4D (Homo sapiens, UniProt Q08499); assay: PDE4 IC50 determination by Scintillation Proximity Assay, PDE4D; assay type: biochemical
T2 construct: PDE4D: The catalytic domain of human PDE4B from S3 16-V692; His6 (N); thrombin cleavage site (N); made in house; host or cells: E. coli
T2 sequence (Q08499 380-756): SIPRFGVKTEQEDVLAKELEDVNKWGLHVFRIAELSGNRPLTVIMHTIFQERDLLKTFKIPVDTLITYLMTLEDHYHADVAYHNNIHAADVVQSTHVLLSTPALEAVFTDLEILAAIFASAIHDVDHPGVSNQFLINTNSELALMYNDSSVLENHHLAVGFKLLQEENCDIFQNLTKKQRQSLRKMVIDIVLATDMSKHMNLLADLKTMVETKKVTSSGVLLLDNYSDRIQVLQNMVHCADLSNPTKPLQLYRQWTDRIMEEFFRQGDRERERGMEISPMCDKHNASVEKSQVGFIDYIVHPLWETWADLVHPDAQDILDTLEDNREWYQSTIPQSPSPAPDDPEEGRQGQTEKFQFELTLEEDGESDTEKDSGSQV
How it was run: as §1

[3] = second part of Table 2B (2-23 to 2-103), column 3, column is PDE4B in first part, read-out: IC 50 vs. indicated assay h TNFα
[4] = second part of Table 2B (2-23 to 2-103), column 5, column is PDE4D in first part, read-out: IC 50 vs. indicated assay h TNFα
[5] = Table 3A, Formula III compounds, read-out: IC50 PDE4B
[6] = Table 3A, Formula III compounds, read-out: IC50 PDE4D

Row | SMILES | IC50 [1, 3] | IC50 [2, 4] | further results
1 | Nc1nc(Nc2cccc3ccccc23)sc1C(=O)c1ccccc1 [Compound 2-70, [4-Amino-2-(naphthalen-1-ylamino)-thiazol-5-yl]-phenyl-methanone] | < 10 µM | < 10 µM | 
2 | Nc1nc(Nc2cccnc2)sc1C(=O)c1ccccc1 [Compound 2-71, [4-Amino-2-(pyridin-3-ylamino)-thiazol-5-yl]-phenyl-methanone] | < 10 µM | < 10 µM | 
3 | COc1ccc(C(=O)c2sc(Nc3cccnc3)nc2N)cc1 [Compound 2-72, [4-Amino-2-(pyridin-3-ylamino)-thiazol-5-yl]-(4-methoxy-phenyl)-methanone] | < 10 µM | < 10 µM | 
4 | Nc1nc(Nc2ccccn2)sc1C(=O)c1ccccc1 [Compound 2-73, [4-Amino-2-(pyridin-2-ylamino)-thiazol-5-yl]-phenyl-methanone] | < 10 µM | > 10 µM | 
5 | Nc1nc(Nc2ccc(Oc3ccccc3)nc2)sc1C(=O)c1ccccc1 [Compound 2-74, [4-Amino-2-(6-phenoxy-pyridin-3-ylamino)-thiazol-5-yl]-phenyl-methanone] | > 10 µM | < 10 µM | 
6 | Nc1nc(NC2CCCC2)sc1C(=O)c1ccccc1Cl [Compound 2-75, (4-Amino-2-cyclopentylamino-thiazol-5-yl)-(2-chloro-phenyl)-methanone] | > 10 µM | > 10 µM | 
7 | Nc1nc(NC2CC2)sc1C(=O)c1ccc(Oc2ccccc2)cc1 [Compound 2-77, (4-Amino-2-cyclopropylamino-thiazol-5-yl)-(4-phenoxy-phenyl)-methanone] | < 10 µM | < 10 µM | 
8 | COc1ccc(C(=O)c2sc(NC3CCCC3)nc2N)cc1 [Compound 2-78, (4-Amino-2-cyclopentylamino-thiazol-5-yl)-(4-methoxy-phenyl)-methanone] |  |  | IC50 [1]: < 10 µM; IC50 [2]: < 10 µM
9 | COc1ccc(C(=O)c2sc(NC3CC3)nc2N)cc1 [Compound 2-79, (4-Amino-2-cyclopropylamino-thiazol-5-yl)-(4-methoxy-phenyl)-methanone] | < 10 µM | < 10 µM | 
10 | Nc1nc(NC2CC2)sc1C(=O)c1cccc(Cl)c1 [Compound 2-81, (4-Amino-2-cyclopropylamino-thiazol-5-yl)-(3-chloro-phenyl)-methanone] | < 10 µM | < 10 µM | 
11 | Nc1nc(NC2CCCC2)sc1C(=O)c1cccc(C(F)(F)F)c1 [Compound 2-82, (4-Amino-2-cyclopentylamino-thiazol-5-yl)-(3-trifluoromethyl-phenyl)-methanone] | < 10 µM | < 10 µM | 
12 | Nc1nc(NC2CCCC2)sc1C(=O)c1ccc(OC(F)F)cc1 [Compound 2-84, (4-Amino-2-cyclopentylamino-thiazol-5-yl)-(4-difluoromethoxy-phenyl)-methanone] | < 10 µM | < 10 µM | 
13 | Nc1nc(NC2CC2)sc1C(=O)c1ccc(OC(F)F)cc1 [Compound 2-85, (4-Amino-2-thiazol-5-yl)-(4-difluoromethoxy-phenyl)-methanone] | < 10 µM | > 10 µM | 
14 | COc1cccc(C(=O)c2sc(NC3CCCC3)nc2N)c1 [Compound 2-86, (4-Amino-2-cyclopentylamino-thiazol-5-yl)-(3-methoxy-phenyl)-methanone] | < 10 µM | < 10 µM | 
15 | COc1cccc(C(=O)c2sc(NC3CC3)nc2N)c1 [Compound 2-87, (4-Amino-2-cyclopropylamino-thiazol-5-yl)-(3-methoxy-phenyl)-methanone] | < 10 µM | < 10 µM | 
16 | Nc1nc(NC2CC2)sc1C(=O)c1cccc(C(F)(F)F)c1 [Compound 2-88, (4-Amino-2-cyclopropylamino-thiazol-5-yl)-(3-trifluoromethyl-phenyl)-methanone] | < 10 µM | < 10 µM | 
17 | Nc1nc(Nc2ccccc2)sc1C(=O)C1CCCC1 [Compound 2-89, (4-Amino-2-phenylamino-thiazol-5-yl)-cyclopentyl-methanone] | < 10 µM | < 10 µM | 
18 | Nc1nc(Nc2ccccc2)sc1C(=O)C1CCCCC1 [Compound 2-90, (4-Amino-2-phenylamino-thiazol-5-yl)-cyclohexyl-methanone] | < 10 µM | < 10 µM | 
19 | Nc1nc(Nc2ccc(Cl)cc2)sc1C(=O)C1CCCCC1 [Compound 2-91, [4-Amino-2-(4-chloro-phenylamino)-thiazol-5-yl]-cyclohexyl-methanone] | < 10 µM | > 10 µM | 
20 | Nc1nc(Nc2c(Cl)cccc2Cl)sc1C(=O)CC1CCCC1 [Compound 2-94, 1-[4-Amino-2-(2,6-dichloro-phenylamino)-thiazol-5-yl]-2-cyclopentyl-ethanone] | > 10 µM | > 10 µM | 
21 | Nc1nc(Nc2ccccc2)sc1C(=O)C1CC1 [Compound 2-95, (4-Amino-2-phenylamino-thiazol-5-yl)-cyclopropyl-methanone] | < 10 µM | > 10 µM | 

Row | SMILES | IC50 [1, 3] | IC50 [2, 4] | further results
22 | Nc1nc(Nc2c(Cl)cccc2Cl)sc1C(=O)C1CC1 [Compound 2-96, [4-Amino-2-(2,6-dichloro-phenylamino)-thiazol-5-yl]-cyclopropyl-methanone] | < 10 µM | < 10 µM | 
23 | Nc1nc(Nc2ccc(Oc3ccccc3)cc2)sc1C(=O)C1CC1 [Compound 2-97, [4-Amino-2-(4-phenoxy-phenylamino)-thiazol-5-yl]-cyclopropyl-methanone] | < 10 µM | < 10 µM | 
24 | Nc1nc(Nc2ccccc2F)sc1C(=O)C1CCCC1 [Compound 2-98, [4-Amino-2-(2-fluoro-phenylamino)-thiazol-5-yl]-cyclopentyl-methanone] | < 10 µM | < 10 µM | 
25 | COc1ccc(Nc2nc(N)c(C(=O)C3CCCC3)s2)cc1 [Compound 2-99, [4-Amino-2-(4-methoxy-phenylamino)-thiazol-5-yl]-cyclopentyl-methanone] | > 10 µM | > 10 µM | 
26 | N#Cc1cccc(Nc2nc(N)c(C(=O)C3CCCC3)s2)c1 [Compound 2-100, 3-(4-Amino-5-cyclopentanecarbonyl-thiazol-2-ylamino)-benzonitrile] | < 10 µM | < 10 µM | 
27 | Nc1nc(Nc2ccc(Oc3ccccc3)cc2)sc1C(=O)C1CCCC1 [Compound 2-101, [4-Amino-2-(4-phenoxy-phenylamino)-thiazol-5-yl]-cyclopentyl-methanone] | > 10 µM | > 10 µM | 
28 | Nc1nc(NC2CCCC2)sc1C(=O)c1ccsc1 [Compound 2-102, (4-Amino-2-cyclopentylamino-thiazol-5-yl)-thiophen-3-yl-methanone] | < 10 µM | < 10 µM | 
29 | Nc1nc(NC2CCCC2)sc1C(=O)c1nc2ccccc2s1 [Compound 2-103, (4-Amino-2-cyclopentylamino-thiazol-5-yl)-benzothiazol-2-yl-methanone] | < 10 µM | < 10 µM | 
30 | O=S(=O)(Nc1cccc2cccnc12)c1cccs1 [Compound 3-1, Thiophene-2-sulfonic acid guinolin-8-ylamide] |  |  | IC50 [1, 5]: > 10 µM; IC50 [2, 6]: > 10 µM
31 | COc1cc(NS(=O)(=O)c2ccc(Br)s2)c2ncccc2c1 [Compound 3-2, 5-Bromo-thiophene-2-sulfonic acid (6-methoxy-quinolin-8-yl)-amide] |  |  | IC50 [1, 5]: > 10 µM; IC50 [2, 6]: > 10 µM
32 | Cc1ccc2cccnc2c1NS(=O)(=O)c1ccc(Cl)s1 [Compound 3-3, 5-Chloro-thiophene-2-sulfonic acid (7-methyl-quinolin-8-yl)-amide] |  |  | IC50 [1, 5]: > 10 µM; IC50 [2, 6]: > 10 µM
33 | O=S(=O)(Nc1cccc2cccnc12)c1ccc(Br)s1 [Compound 3-4, 5-Bromo-thiophene-2-sulfonic acid quinolin-8-ylamide] |  |  | IC50 [1, 5]: > 10 µM; IC50 [2, 6]: > 10 µM
34 | Cc1ccc2cccnc2c1NS(=O)(=O)c1cccs1 [Compound 3-5, Thiophene-2-sulfonic acid (7-methyl-quinolin-8-yl)-amide] |  |  | IC50 [1, 5]: > 10 µM; IC50 [2, 6]: > 10 µM
35 | Cc1ccc2cccnc2c1NS(=O)(=O)c1ccc(Br)s1 [Compound 3-6, 5-Bromo-thiophene-2-sulfonic acid (7-methyl-quinolin-8-yl)-amide] |  |  | IC50 [1, 5]: > 10 µM; IC50 [2, 6]: > 10 µM
36 | O=S(=O)(Nc1cccc2cccnc12)c1ccc(Cl)s1 [Compound 3-7, 5-Chloro-thiophene-2-sulfonic acid quinolin-8-ylamide] |  |  | IC50 [1, 5]: > 10 µM; IC50 [2, 6]: > 10 µM
37 | Cc1ccc2cccnc2c1NS(=O)(=O)c1cc(Cl)c(Cl)s1 [Compound 3-8, 4,5-Dichloro-thiophene-2-sulfonic acid (7-methyl-quinolin-8-yl)-amide] |  |  | IC50 [1, 5]: > 10 µM; IC50 [2, 6]: > 10 µM
38 | COc1cc(NS(=O)(=O)c2cc(Cl)c(Cl)s2)c2ncccc2c1 [Compound 3-9, 4,5-Dichloro-thiophene-2-sulfonic acid (6-methoxy-quinolin-8-yl)-amide] |  |  | IC50 [1, 5]: > 10 µM; IC50 [2, 6]: > 10 µM
39 | O=S(=O)(Nc1cccc2cccnc12)c1cc(Cl)c(Cl)s1 [Compound 3-10, 4,5-Dichloro-thiophene-2-sulfonic acid quinolin-8-ylamide] |  |  | IC50 [1, 5]: > 10 µM; IC50 [2, 6]: > 10 µM
40 | Cc1ccc2cccnc2c1NS(=O)(=O)c1cc(Cl)sc1Cl [Compound 3-11, 2,5-Dichloro-thiophene-3-sulfonic acid (7-methyl-quinolin-8-yl)-amide] |  |  | IC50 [1, 5]: > 10 µM; IC50 [2, 6]: > 10 µM
41 | COc1cc(NS(=O)(=O)c2ccc(Cl)s2)c2ncccc2c1 [Compound 3-12, 5-Chloro-thiophene-2-sulfonic acid (6-methoxy-quinolin-8-yl)-amide] |  |  | IC50 [1, 5]: > 10 µM; IC50 [2, 6]: > 10 µM
